Where two headings read alike, the source gives them in different places.
Columns and labels:
[1] = test system: Green swimmer cells of Haematococcus pluvialis (Strain 2)
Description: (§1) The calculated concentrations of the hydrogen peroxide doses tested were 0.0105, 0.0140, 0.0175, 0.0210, and 0.0245 mL/L. The amount of cell lysis was quantified using visual observation under a microscope after 24, 48, and 72 hours.

[2] = test system: red cyst cells of Haematococcus pluvialis (Strain 2)
Description: as §1

[3] = test system: Nitrogen fixing bacteria including Rhizobium, Emticicia, and Sinorhizobium; details: after the hydrogen peroxide treatments in bioreactor #2320 (from 20-40%)
Text: A series of Haematococcus pluvialis (Strain 1) cultures were compared using bacterial community sequencing (SSU rRNA 16s) to analyze the bacterial community of the cultures during a lysis event, a chytrid infection, and during treatment with hydrogen peroxide to determine if the bacteria community shifts or produces a detectable pattern.

[4] = test system: Haematococcus pluvialis (Strain 1) green swimmer cells; details: for % Lysis: samples from Bioreactor #2430 48 hours after transfer
Description: A series of experiments were conducted to determine if treating a culture of Haematococcus pluvialis with hydrogen peroxide prevents lysis.

[5] = test system: chytrids; details: for % Chytrids Infection: 0.0105 mL/L every 6 hours
Text: Three 3,000 L open raceway pond bioreactor #'s MP1, MP2, & MP3 with paddlewheel mixing disposed outdoors were inoculated with cultures of green swimmer Haematococcus pluvialis (Strain 2) cells from outdoor reactor #2310 at a dilution ratio of 1 part culture samples to 3 parts reddening media containing 1 ppt salt (NaCl). […] MP2 was not treated with hydrogen peroxide to serve as an untreated control for comparison purposes. […] After hydrogen peroxide treatments began, the percent of the cultures infected with chytrids, percent of carotenoids by UV method, and cell dry weight (g/L) were quantified daily.

[6] = test system: chytrids
Description: Culture samples of Haematococcus pluvialis (Strain 2) were collected on the second day of the culture from open raceway bioreactor #2430 operating in conditions: reactor volume of 170,000 L; Daily PAR not measured; pH of 7.3; and paddlewheel speed of 70. The culture samples were distributed into flasks for culturing, consisting of duplicate untreated controls and duplicate treatments. […] Samples were taken from the flask cultures daily to quantify % lysis and % chytrid infection and cell dry weight was quantified every other day for a duration of 11 days.

[7] = 0.0140 mL/L three times per day, 24 h
[8] = 0.0140 mL/L three times per day, 48 h
[9] = 0.0140 mL/L three times per day, 72 h
[10] = 0.0175 mL/L three times per day, 24 h
[11] = 0.0175 mL/L three times per day, 48 h
[12] = 0.0175 mL/L three times per day, 72 h
[13] = 0.0210 mL/L three times per day, 24 h
[14] = 0.0210 mL/L three times per day, 48 h
[15] = 0.0210 mL/L three times per day, 72 h
[16] = 0.0245 mL/L three times per day, 24 h
[17] = 0.0245 mL/L three times per day, 48 h
[18] = 0.0245 mL/L three times per day, 72 h

hydrogen peroxide [H2O2]
% Cell lysis (±1SE) ([1]; 0.0105 mL/L three times per day, 24 h): 3.3% ± 1.7%
% Cell lysis (±1SE) ([1]; 0.0105 mL/L three times per day, 48 h): 5.0% ± 1.7%
% Cell lysis (±1SE) ([1]; 0.0105 mL/L three times per day, 72 h): 3.3% ± 0.0%
cell lysis level ([1]; 0.0105 mL/L, for at least 72 hours): below 10%
% Cell lysis (±1SE) [1, 7]: 4.2% ± 0.8%
% Cell lysis (±1SE) [1, 8]: 5.8% ± 2.5%
% Cell lysis (±1SE) [1, 9]: 9.2% ± 4.2%
% Cell lysis (±1SE) [1, 10]: 2.5% ± 0.8%
% Cell lysis (±1SE) [1, 11]: 9.2% ± 2.5%
% Cell lysis (±1SE) [1, 12]: 13.3% ± 3.3%
% Cell lysis (±1SE) [1, 13]: 4.2% ± 2.5%
% Cell lysis (±1SE) [1, 14]: 6.7% ± 1.7%
% Cell lysis (±1SE) [1, 15]: 20.0% ± 3.3%
cell lysis level ([1]; 0.0210 mL/L, for 48 hours): below 10%
% Cell lysis (±1SE) [1, 16]: 15.0% ± 0.0%
% Cell lysis (±1SE) [1, 17]: 22.5% ± 0.8%
% Cell lysis (±1SE) [1, 18]: 27.5% ± 2.5%
% Cell lysis (±1SE) [2, 7]: 1.7% ± 1.0%
% Cell lysis (±1SE) [2, 8]: 0.8% ± 0.8%
% Cell lysis (±1SE) [2, 9]: 3.3% ± 0.0%
% Cell lysis (±1SE) ([2]; 0.0140 mL/L three times per day, 96 h): 3.3% ± 1.7%
% Cell lysis (±1SE) [2, 10]: 1.1% ± 0.6%
% Cell lysis (±1SE) [2, 11]: 3.3% ± 1.7%
% Cell lysis (±1SE) [2, 12]: 5.8% ± 5.8%
% Cell lysis (±1SE) ([2]; 0.0175 mL/L three times per day, 96 h): 5.8% ± 2.5%
% Cell lysis (±1SE) [2, 13]: 3.9% ± 2.0%
% Cell lysis (±1SE) [2, 14]: 0.8% ± 0.8%
% Cell lysis (±1SE) [2, 15]: 1.7% ± 0.0%
% Cell lysis (±1SE) ([2]; 0.0210 mL/L three times per day, 96 h): 18.3% ± 1.7%
% Cell lysis (±1SE) [2, 16]: 3.9% ± 0.6%
% Cell lysis (±1SE) [2, 17]: 5.0% ± 1.7%
% Cell lysis (±1SE) [2, 18]: 9.2% ± 0.8%
% Cell lysis (±1SE) ([2]; 0.0245 mL/L three times per day, 96 h): 51.7% ± 5.0%
cell lysis level ([2]; dosages at or above 0.0175 mL/L, after 48-96 hours): above 10%
cell lysis level ([2]; dosages below 0.0175 mL/L, for at least 96 hours): below 10%
relative amount of nitrogen fixing bacteria in the dominant bacterial community [3]: less than 10%
lysis level with the hydrogen peroxide treatments ([4]; Tables 6 and 7, 0.007 mL/L three times per day): less than 30%
% Lysis (±1SD) ([4]; samples from Bioreactor #2330, 0.007 mL/L three times per day, 0 h): 8.3 ± 7.6%
% Lysis (±1SD) ([4]; samples from Bioreactor #2330, 0.007 mL/L three times per day, 24 h): 10.0 ± 4.7%
% Lysis (±1SD) ([4]; samples from Bioreactor #2330, 0.007 mL/L three times per day, 48 h): 12.5 ± 3.5%
% Lysis (±1SD) ([4]; samples from Bioreactor #2330, 0.007 mL/L three times per day, 72 h): 0.0 ± 0.0%
% Lysis (±1SD) ([4]; samples from Bioreactor #2330, 0.007 mL/L three times per day, 120 h): 0.8 ± 1.2%
% Lysis (±1SD) ([4]; samples from Bioreactor #2430 24 hours after transfer, 0.007 mL/L three times per day, 0 h): 0.0 ± 0.0%
% Lysis (±1SD) ([4]; samples from Bioreactor #2430 24 hours after transfer, 0.007 mL/L three times per day, 24 h): 7.5 ± 1.2%
% Lysis (±1SD) ([4]; samples from Bioreactor #2430 24 hours after transfer, 0.007 mL/L three times per day, 48 h): 0.0 ± 0.0%
% Lysis (±1SD) ([4]; samples from Bioreactor #2430 24 hours after transfer, 0.007 mL/L three times per day, 96 h): 4.1 ± 1.2%
% Lysis ([4]; 0.007 mL/L three times per day, 0 h): 3.3 ± 2.9%
% Lysis ([4]; 0.007 mL/L three times per day, 24 h): 25.0 ± 9.4%
% Lysis ([4]; 0.007 mL/L three times per day, 96 h): 16.7 ± 4.7%
reduction of lysis ([4]; vs control cultures, Tables 6 and 7): 60-80%
% Chytrids Infection ([5]; MP1, initial infection 20%, day 7): 23.3 ± 5.8%
% Chytrids Infection ([5]; MP1, initial infection 20%, day 8): 20.0 ± 5.0%
% Chytrids Infection ([5]; MP1, initial infection 20%, day 9): 30.0 ± 10.0%
% Chytrids Infection ([5]; MP1, initial infection 20%, day 10): 26.7 ± 2.9%
% Chytrids Infection ([5]; MP1, initial infection 20%, day 11): 61.7 ± 24.7%
% Chytrids Infection ([5]; MP1, initial infection 20%, day 12): 63.3 ± 16.1%
% Chytrids Infection ([5]; MP1, initial infection 20%, day 13): 73.3 ± 7.6%
% Chytrids Infection ([5]; MP1, initial infection 20%, day 14): 76.7 ± 17.6%
% Chytrids Infection ([5]; MP3, initial infection less than 5%, day 7): 1.7 ± 2.9%
% Chytrids Infection ([5]; MP3, initial infection less than 5%, day 8): 0.0 ± 0.0%
% Chytrids Infection ([5]; MP3, initial infection less than 5%, day 9): 1.7 ± 2.9%
% Chytrids Infection ([5]; MP3, initial infection less than 5%, day 10): 0.0 ± 0.0%
% Chytrids Infection ([5]; MP3, initial infection less than 5%, day 11): 0.0 ± 0.0%
% Chytrids Infection ([5]; MP3, initial infection less than 5%, day 12): 0.0 ± 0.0%
% Chytrids Infection ([5]; MP3, initial infection less than 5%, day 13): 3.3 ± 2.9%
% Chytrids Infection ([5]; MP3, initial infection less than 5%, day 14): 0.0 ± 0.0%
chytrids infection level ([5]; MP3 culture, below 5% when the treatments started, 1 ppt salt): below 5%
% Chytrid infection ([6]; 0.0105 mL/L 1 time per day for 3 d then every other day, day 0): 0.0 ± 0.0%
% Chytrid infection ([6]; 0.0105 mL/L 1 time per day for 3 d then every other day, day 3): 0.0 ± 0.0%
% Chytrid infection ([6]; 0.0105 mL/L 1 time per day for 3 d then every other day, day 4): 0.8 ± 1.2%
% Chytrid infection ([6]; 0.0105 mL/L 1 time per day for 3 d then every other day, day 5): 5.0 ± 2.4%
% Chytrid infection ([6]; 0.0105 mL/L 1 time per day for 3 d then every other day, day 6): 2.5 ± 1.2%
% Chytrid infection ([6]; 0.0105 mL/L 1 time per day for 3 d then every other day, day 7): 0.0 ± 0.0%
% Chytrid infection ([6]; 0.0105 mL/L 1 time per day for 3 d then every other day, day 8): 0.0 ± 0.0%
% Chytrid infection ([6]; 0.0105 mL/L 1 time per day for 3 d then every other day, day 9): 2.5 ± 3.5%
% Chytrid infection ([6]; 0.0105 mL/L 1 time per day for 3 d then every other day, day 10): 1.7 ± 2.4%
% Chytrid infection ([6]; 0.0105 mL/L 1 time per day, day 0): 0.0 ± 0.0%
% Chytrid infection ([6]; 0.0105 mL/L 1 time per day, day 3): 0.0 ± 0.0%
% Chytrid infection ([6]; 0.0105 mL/L 1 time per day, day 4): 0.8 ± 1.2%
% Chytrid infection ([6]; 0.0105 mL/L 1 time per day, day 5): 0.8 ± 1.2%
% Chytrid infection ([6]; 0.0105 mL/L 1 time per day, day 6): 1.7 ± 2.4%
% Chytrid infection ([6]; 0.0105 mL/L 1 time per day, day 7): 3.3 ± 0.0%
% Chytrid infection ([6]; 0.0105 mL/L 1 time per day, day 8): 0.0 ± 0.0%
% Chytrid infection ([6]; 0.0105 mL/L 1 time per day, day 9): 0.8 ± 1.2%
% Chytrid infection ([6]; 0.0105 mL/L 1 time per day, day 10): 0.0 ± 0.0%
% Chytrid infection ([6]; 0.0140 mL/L 1 time per day for 3 d then every other day, day 0): 0.0 ± 0.0%
% Chytrid infection ([6]; 0.0140 mL/L 1 time per day for 3 d then every other day, day 3): 0.0 ± 0.0%
% Chytrid infection ([6]; 0.0140 mL/L 1 time per day for 3 d then every other day, day 4): 0.0 ± 0.0%
% Chytrid infection ([6]; 0.0140 mL/L 1 time per day for 3 d then every other day, day 5): 0.0 ± 0.0%
% Chytrid infection ([6]; 0.0140 mL/L 1 time per day for 3 d then every other day, day 6): 1.7 ± 2.4%
% Chytrid infection ([6]; 0.0140 mL/L 1 time per day for 3 d then every other day, day 7): 0.0 ± 0.0%
% Chytrid infection ([6]; 0.0140 mL/L 1 time per day for 3 d then every other day, day 8): 0.8 ± 1.2%
% Chytrid infection ([6]; 0.0140 mL/L 1 time per day for 3 d then every other day, day 9): 0.0 ± 0.0%
% Chytrid infection ([6]; 0.0140 mL/L 1 time per day for 3 d then every other day, day 10): 0.0 ± 0.0%
% Chytrid infection ([6]; 0.0140 mL/L 1 time per day, day 0): 0.0 ± 0.0%
% Chytrid infection ([6]; 0.0140 mL/L 1 time per day, day 3): 0.0 ± 0.0%
% Chytrid infection ([6]; 0.0140 mL/L 1 time per day, day 4): 0.0 ± 0.0%
% Chytrid infection ([6]; 0.0140 mL/L 1 time per day, day 6): 0.0 ± 0.0%
% Chytrid infection ([6]; 0.0140 mL/L 1 time per day, day 7): 1.7 ± 2.4%
% Chytrid infection ([6]; 0.0140 mL/L 1 time per day, day 8): 0.8 ± 1.2%
% Chytrid infection ([6]; 0.0140 mL/L 1 time per day, day 9): 0.8 ± 1.2%
% Chytrid infection ([6]; 0.0140 mL/L 1 time per day, day 10): 0.0 ± 0.0%
% Chytrid infection ([6]; 0.0175 mL/L 1 time per day for 2 d then every other, day 0): 0.0 ± 0.0%
% Chytrid infection ([6]; 0.0175 mL/L 1 time per day for 2 d then every other, day 3): 0.0 ± 0.0%
% Chytrid infection ([6]; 0.0175 mL/L 1 time per day for 2 d then every other, day 4): 0.0 ± 0.0%
% Chytrid infection ([6]; 0.0175 mL/L 1 time per day for 2 d then every other, day 5): 0.0 ± 0.0%
% Chytrid infection ([6]; 0.0175 mL/L 1 time per day for 2 d then every other, day 6): 0.8 ± 1.2%
chytrid infection ([6]; all treated flasks): under 10%
